In one experiment the target is T1, STAT5a (Homo sapiens, UniProt P42229).
T1 sequence (P42229 1-794): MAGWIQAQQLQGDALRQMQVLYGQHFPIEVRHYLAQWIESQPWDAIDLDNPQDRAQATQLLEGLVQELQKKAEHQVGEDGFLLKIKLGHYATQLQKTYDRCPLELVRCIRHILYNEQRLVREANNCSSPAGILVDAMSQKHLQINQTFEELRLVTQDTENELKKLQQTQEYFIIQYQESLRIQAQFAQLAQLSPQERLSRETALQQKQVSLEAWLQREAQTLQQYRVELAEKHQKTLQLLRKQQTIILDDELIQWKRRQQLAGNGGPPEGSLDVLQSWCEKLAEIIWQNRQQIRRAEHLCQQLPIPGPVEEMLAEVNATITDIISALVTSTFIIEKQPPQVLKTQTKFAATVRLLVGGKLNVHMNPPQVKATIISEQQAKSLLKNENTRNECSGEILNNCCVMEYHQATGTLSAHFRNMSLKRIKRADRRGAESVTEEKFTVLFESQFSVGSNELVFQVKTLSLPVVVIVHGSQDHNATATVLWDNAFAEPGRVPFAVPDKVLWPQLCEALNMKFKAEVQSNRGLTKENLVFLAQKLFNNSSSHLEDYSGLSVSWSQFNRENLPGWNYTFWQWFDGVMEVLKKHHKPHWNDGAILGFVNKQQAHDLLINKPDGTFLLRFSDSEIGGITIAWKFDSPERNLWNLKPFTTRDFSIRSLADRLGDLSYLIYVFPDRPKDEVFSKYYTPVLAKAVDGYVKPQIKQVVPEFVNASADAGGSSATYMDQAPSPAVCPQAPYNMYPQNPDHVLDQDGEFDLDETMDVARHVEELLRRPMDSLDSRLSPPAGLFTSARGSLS
The experiment is described as follows: Fluorescence polarization (FP) binding assay, STAT5a. The settings on record: for selectivity with respect to other STAT family members: FP assays against STAT1, STAT3, STAT4, STAT6. The protocol: (§1) Table S1: Activities of test compounds against STAT5a and STAT5b in FP assays . Experiments were carried out in triplicate (n = 3) unless stated otherwise. n/a: not applicable.
(§2) [a]data taken from the literature.[1]
(§3) Ki values were calculated from IC50 values using the published equation.[2] […]
(§4) Table S2: Activities of 12 against STAT5 proteins in FP assays.
(§5) Fluorescence polarization assays
(§6) Fluorescence polarization assays were essentially carried out as previously described.[1] These assays quantitate to which extent a test compound is able to interfere with binding between a STAT protein and a fluorescein-labeled phosphotyrosine-containing peptide, which is known to bind to the SH2 domain of the respective STAT protein. The following protein […]
(§7) concentrations were used: 100 nM for STAT1, 150 nM for STAT3, 30 nM for STAT4, 180 nM for STAT5a, 90 nM for STAT5b and 105 nM for STAT6. All peptides were used at a concentration of 10 nM. The following peptides were used: 5 -carboxyfluorescein -GpYDKPHVL for STAT1; 5-carboxyfluorescein -GpYLPQTV-NH2 for STAT3; 5-carboxyfluorescein-GpYLPQNID-OH for STAT4; 5-carboxyfluorescein-GpYLVLDKW for STAT5a/b, and 5-carboxyfluorescein-GpYVPWQDLI-OH for STAT6. As a buffer system, 10 mM Tris (pH 8.0), 50 mM NaCl, 1 mM EDTA, 1 mM DTT, 0.1 % Nonidet P-40 substitute, and 2 % DMSO in water was used. All compounds tested were incubated for 1 h with the protein. Subsequently, the fluorescein-labeled peptide was added and the fluorescence polarization was measured with an Infinite F500 plate reader (Tecan) after another hour. IC50 values were converted to Ki-values using the published equation.[2]

Another experiment concerns the target T2, STAT5b (Homo sapiens, UniProt P51692).
T2 sequence (P51692 1-787): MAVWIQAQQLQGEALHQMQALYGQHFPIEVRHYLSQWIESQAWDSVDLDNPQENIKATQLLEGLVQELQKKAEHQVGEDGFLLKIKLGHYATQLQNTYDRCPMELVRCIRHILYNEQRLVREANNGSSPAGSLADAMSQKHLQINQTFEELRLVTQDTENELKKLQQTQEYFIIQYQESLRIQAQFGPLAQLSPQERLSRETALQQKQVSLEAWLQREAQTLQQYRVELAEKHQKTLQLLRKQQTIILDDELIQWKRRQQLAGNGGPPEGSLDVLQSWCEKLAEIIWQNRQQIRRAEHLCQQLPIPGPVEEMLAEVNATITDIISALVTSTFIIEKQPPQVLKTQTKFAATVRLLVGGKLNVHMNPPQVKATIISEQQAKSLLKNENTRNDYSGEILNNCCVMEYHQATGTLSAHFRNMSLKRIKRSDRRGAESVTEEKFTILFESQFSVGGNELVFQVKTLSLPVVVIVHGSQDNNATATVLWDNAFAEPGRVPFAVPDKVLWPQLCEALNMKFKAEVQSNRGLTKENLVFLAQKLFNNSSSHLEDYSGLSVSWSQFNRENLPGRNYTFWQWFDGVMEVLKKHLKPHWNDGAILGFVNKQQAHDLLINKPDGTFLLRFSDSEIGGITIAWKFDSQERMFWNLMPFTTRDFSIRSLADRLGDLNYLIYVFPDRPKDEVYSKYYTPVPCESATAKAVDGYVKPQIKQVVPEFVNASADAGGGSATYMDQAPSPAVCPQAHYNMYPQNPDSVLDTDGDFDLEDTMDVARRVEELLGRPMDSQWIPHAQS
Put plainly: Fluorescence polarization (FP) binding assay, STAT5b. Here is the method:
as §1, §2, §3, §4, §5, §6, §7

Structures are written as SMILES. Like-named read-outs stand apart in the source and are kept apart here.

Consider `COc1cc(-c2cc(-c3cc(F)c(F)c(F)c3)cc(C(F)P(=O)(O)O)c2)cc(OC)c1OC` (stereo not shown) [compound 12], for which the inhibitory constant (Ki) was 20 ± 2.1 µM on STAT5a (FP assay, Ki calculated from IC50 (n=3; 6 a n=2), read-out: STAT5a Ki) and 24.9 ± 3.3 µM on STAT5b (FP assay, Ki calculated from IC50 (n=3; 6 a n=2), read-out: STAT5b Ki). In addition, the concentration for half-maximal inhibition (IC50) was found to be 40.4 ± 4.3 µM at STAT5a (FP assay, n=3 (6a n=2), read-out: STAT5a IC50) and 50.7 ± 6.8 µM on STAT5b (FP assay, n=3 (6a n=2), read-out: STAT5b IC50). Also, on STAT5a, the “selectivity with respect to other STAT family members” value is recorded as “retains selectivity”.

Regarding `COc1cc(-c2cc(OP(=O)(O)O)cc(-c3cc(F)c(F)c(F)c3)c2)cc(OC)c1OC` [6 b], on STAT5a, the IC50 was determined as 22.1 ± 0.4 µM, affinity was put at a Ki of 10.9 ± 0.2 µM and the “selectivity with respect to other STAT family members” value was “good selectivity”. On STAT5b, this compound showed an IC50 of 59.4 ± 3.4 µM and a Ki of 29.2 ± 1.7 µM.

Source of the values: article PMC9303812, “Asymmetrically Substituted m‐Terphenyl Phosphates Inhibit the Transcription Factor STAT5a” (Chembiochem, 2021).
